From patent US20110046170A1, “NOVEL PYRIMIDINE-PYRIDINE DERIVATIVES” (priority 2008, published 2011)

Tested on: circulating lymphocytes
Assay: Assessment of in vivo efficacy: circulating lymphocytes after oral administration
Settings: 6 h after oral administration of 10 mg/kg to normotensive male Wistar rats, compared to vehicle-treated group; mean ± SEM
Method: Assessment of In Vivo Efficacy
The efficacy of the compounds of formula (I) is assessed by measuring the circulating lymphocytes after oral administration of 3 to 30 mg/kg of a compound of formula (I) to normotensive male Wistar rats. The animals are housed in climate-controlled conditions with a 12 h-light/dark cycle, and have free access to normal rat chow and drinking water. Blood is collected before and 3, 6 and 24 h after drug administration. Full blood is subjected to hematology using Advia Hematology system (Bayer Diagnostics, Zurich, Switzerland).
All data are presented as mean±SEM. Statistical analyses are performed by analysis of variance (ANOVA) using Statistica (StatSoft) and the Student-Newman-Keuls procedure for multiple comparisons. The null hypothesis is rejected when p<0.05.

SMILES | Lymphocyte counts [%]
Cc1cc(-c2noc(-c3cc(C)nc(NC(C)C)n3)n2)cc(C)n1 [Example 21] | −71 ± 2
CCNc1nc(CC)cc(-c2nc(-c3cc(C)nc(C)c3)no2)n1 [Example 79, {4-[3-(2,6-Dimethyl-pyridin-4-yl)-[1,2,4]oxadiazol-5-yl]-6-ethyl-pyrimidin-2-yl}-ethyl-amine] | −70 ± 2

Molecular target: human S1P1 receptor (Homo sapiens, UniProt P21453)
Assay: GTPγS assay to determine EC50 values
Assay type: biochemical
Settings: 35S-GTPγS binding, membrane preparations of CHO cells expressing recombinant human S1P1 receptor
Method: GTPγS Assay to Determine EC50 Values
GTPγS binding assays are performed in 96 well microtiter plates (Nunc, 442587) in a final volume of 200 μl, using membrane preparations of CHO cells expressing recombinant human S1P1 receptor. Assay conditions are 20 mM Hepes (Fluka, 54461), 100 mM NaCl (Fluka, 71378), 5 mM MgCl2 (Fluka, 63064), 0.1% BSA (Calbiochem, 126609), 1 μM GDP (Sigma, G-7127), 2.5% DMSO (Fluka, 41644), 50 pM ^35S-GTPγS (Amersham Biosciences, SJ1320). The pH is 7.4. Test compounds are dissolved and diluted in 100% DMSO and pre-incubated at rt for 30 min in 150 μl of the above assay buffer, in the absence of ^35S-GTPγS. After addition of 50 μl of ^35S-GTPγS, the assay is incubated for 1 h at rt. The assay is terminated by transfer of the reaction mixture to a Multiscreen plate (Millipore, MAHFC1H60) using a cell harvester from Packard Biosciences, and the plates are washed with ice-cold 10 mM Na2HPO4/NaH2PO4 (70%/30%), dried, sealed at the bottom and, after addition of 25 μl MicroScint20 (Packard Biosciences, order# 6013621), sealed on the top. Membrane-bound ^35S-GTPγS is measured with a TopCount from Packard Biosciences.
EC50 is the concentration of agonist inducing 50% of the maximal specific ^35S-GTPγS binding. Specific binding is determined by subtracting non-specific binding from maximal binding. Maximal binding is the amount of cpm bound to the Multiscreen plate in the presence of 10 μM of S1P. Non-specific binding is the amount of binding in the absence of an agonist in the assay.

Sequence of human S1P1 receptor (P21453 whole entry): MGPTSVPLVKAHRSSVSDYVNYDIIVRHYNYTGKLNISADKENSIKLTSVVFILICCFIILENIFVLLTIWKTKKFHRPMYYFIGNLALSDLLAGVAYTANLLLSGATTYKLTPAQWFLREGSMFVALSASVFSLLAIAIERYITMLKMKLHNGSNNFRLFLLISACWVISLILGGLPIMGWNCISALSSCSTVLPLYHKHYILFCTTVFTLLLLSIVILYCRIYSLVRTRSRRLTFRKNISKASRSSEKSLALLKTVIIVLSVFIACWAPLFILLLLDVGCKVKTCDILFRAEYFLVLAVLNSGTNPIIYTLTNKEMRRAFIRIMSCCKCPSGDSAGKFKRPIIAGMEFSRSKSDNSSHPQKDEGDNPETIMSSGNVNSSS

SMILES | EC50 [nM]
COc1nc(C)cc(-c2nc(-c3cc(C)nc(C)c3)no2)n1 [Example 58] | > 10000
CCOc1nc(C)cc(-c2nc(-c3cc(C)nc(N(C)C)c3)no2)n1 [Example 70] | > 10000
CCCOc1nc(C)cc(-c2nc(-c3cc(C)nc(N(C)CC)c3)no2)n1 [Example 78] | > 10000
COc1nc(C)cc(-c2noc(-c3cc(C)nc(C)c3)n2)n1 [Example 180] | > 10000

More lines, now with the values ahead:

EC50 [nM] | SMILES
> 10000 | CCc1cc(-c2nc(-c3cc(C)nc(NCC(C)C)n3)no2)cnc1N(C)C(C)C [Example 224]
> 10000 | CCCN(C)c1nc(C)cc(-c2noc(-c3cnc(N(C)C(C)C)c(CC)c3)n2)n1 [Example 227]
> 10000 | CCc1cc(-c2nc(-c3cc(C)nc(N(C)CC(C)C)n3)no2)cnc1N(C)C(C)C [Example 229]
> 10000 | CCCN(CC)c1nc(C)cc(-c2noc(-c3cnc(N(C)C(C)C)c(CC)c3)n2)n1 [Example 231]
> 10000 | CCc1cc(-c2nc(-c3cc(C)nc(N(CC)C(C)C)n3)no2)cnc1N(C)C(C)C [Example 232]
> 10000 | CCc1cc(-c2nc(-c3cc(C)nc(OCC(C)C)n3)no2)cnc1N(C)C(C)C [Example 237]
> 10000 | CCCNc1nc(C)cc(-c2noc(-c3cc(C)cc(CC(C)C)n3)n2)n1 [Example 240]
> 10000 | Cc1cc(CC(C)C)nc(-c2nc(-c3cc(C)nc(NC(C)C)n3)no2)c1 [Example 241]
> 10000 | Cc1cc(CC(C)C)nc(-c2nc(-c3cc(C)nc(NCC(C)C)n3)no2)c1 [Example 242]
> 10000 | Cc1cc(CC(C)C)nc(-c2nc(-c3cc(C)nc(N(C)C(C)C)n3)no2)c1 [Example 246]
> 10000 | Cc1cc(CC(C)C)nc(-c2nc(-c3cc(C)nc(N(C)CC(C)C)n3)no2)c1 [Example 247]
> 10000 | CCN(CC)c1nc(C)cc(-c2noc(-c3cc(C)cc(CC(C)C)n3)n2)n1 [Example 248]
> 10000 | CCCN(CC)c1nc(C)cc(-c2noc(-c3cc(C)cc(CC(C)C)n3)n2)n1 [Example 249]
> 10000 | CCN(c1nc(C)cc(-c2noc(-c3cc(C)cc(CC(C)C)n3)n2)n1)C(C)C [Example 250]
> 10000 | Cc1cc(CC(C)C)nc(-c2nc(-c3cc(C)nc(OC(C)C)n3)no2)c1 [Example 254]
> 10000 | Cc1cc(CC(C)C)nc(-c2nc(-c3cc(C)nc(OCC(C)C)n3)no2)c1 [Example 255]

Same assay, conditions: 35S-GTPγS binding, membrane preparations of CHO cells expressing recombinant human S1P1 receptor; agonistic activity

SMILES | EC50 [nM]
CCNc1nc(C)cc(-c2nc(-c3cc(C)nc(CC)c3)no2)n1 [Example 9] | 21
CCNc1nc(C)cc(-c2nc(-c3cc(C)nc(Cl)c3)no2)n1 [Example 12] | 27
Cc1cc(-c2noc(-c3cc(C)nc(NC(C)C)n3)n2)cc(C)n1 [Example 21] | 1.6
Cc1cc(-c2noc(-c3cc(C)nc(NC(C)C)n3)n2)cc(N(C)C)n1 [Example 25] | 46
Cc1cc(-c2noc(-c3cc(C)nc(NCC(C)C)n3)n2)cc(C)n1 [Example 27] | 8
COc1nc(C)cc(-c2nc(-c3cc(C)nc(C(C)C)c3)no2)n1 [Example 60] | 126
CCNc1nc(CC)cc(-c2nc(-c3cc(C)nc(C)c3)no2)n1 [Example 79, {4-[3-(2,6-Dimethyl-pyridin-4-yl)-[1,2,4]oxadiazol-5-yl]-6-ethyl-pyrimidin-2-yl}-ethyl-amine] | 1.2
CNc1nc(C)cc(-c2noc(-c3cc(C)nc(CC(C)C)c3)n2)n1 [Example 81] | 30
COc1nc(C)cc(-c2noc(-c3cc(C)nc(CC(C)C)c3)n2)n1 [Example 94] | 27
Cc1cc(-c2nnc(-c3cc(C)nc(NC(C)C)n3)o2)cc(C)n1 [Example 100] | 128
CCCNc1nc(C)cc(-c2nc(-c3ccnc(C)c3)no2)n1 [Example 101] | 11
Cc1cc(-c2noc(-c3cc(C)nc(N(C)C(C)C)n3)n2)cc(C)n1 [Example 109] | 1.3
CCc1cc(-c2noc(-c3cc(C)nc(NC4CC4)n3)n2)cc(C)n1 [Example 116] | 2.1
CCc1cc(-c2noc(-c3cc(C)nc(N4CCCC4)n3)n2)cc(C)n1 [Example 118] | 186
CCCNc1nc(C)cc(-c2nc(-c3cc(C)nc(OC)c3)no2)n1 [Example 119] | 30
CCN(c1nc(C)cc(-c2nc(-c3cc(C)nc(OC)c3)no2)n1)C(C)C [Example 126] | 39
Cc1cc(-c2noc(-c3cc(C)nc(OC(C)C)n3)n2)cc(C)n1 [Example 132] | 44
CCc1cc(-c2noc(-c3cc(C)nc(OCC(C)C)n3)n2)cc(C)n1 [Example 135] | 142
Cc1cc(-c2noc(-c3cc(CC(C)C)nc(NC(C)C)n3)n2)cc(C)n1 [Example 142] | 26
CCc1cc(-c2nc(-c3cc(C)nc(C)c3)no2)nc(NC(C)C)n1 [Example 147] | 0.7

SMILES | EC50 [nM]
CCc1cc(-c2nc(-c3cc(C)nc(C)c3)no2)nc(N(C)C)n1 [Example 149] | 63
Cc1cc(-c2nc(-c3ccc(C)c(C)n3)no2)nc(NC(C)C)n1 [Example 155] | 20
CCc1cnc(-c2noc(-c3cc(C)nc(NC(C)C)n3)n2)cc1C [Example 159] | 53
CCN(c1nc(C)cc(-c2noc(-c3ccnc(C)c3)n2)n1)C(C)C [Example 166] | 2150
CCCN(C)c1nc(C)cc(-c2noc(-c3cc(C)nc(C)c3)n2)n1 [Example 174] | 34
CCN(CC)c1nc(C)cc(-c2noc(-c3cc(C)nc(C)c3)n2)n1 [Example 177] | 11
CCCN(CC)c1nc(C)cc(-c2noc(-c3cc(C)nc(C)c3)n2)n1 [Example 178] | 11
CCCOc1nc(C)cc(-c2noc(-c3cc(C)nc(C)c3)n2)n1 [Example 182] | 395
CCCNc1nc(C)cc(-c2noc(-c3cc(C)nc(Cl)c3)n2)n1 [Example 185] | 22
Cc1cc(-c2nc(-c3cc(C)nc(NCC(C)C)n3)no2)cc(Cl)n1 [Example 187] | 31
CNc1nc(C)cc(-c2noc(-c3cc(C)nc(N(C)C)c3)n2)n1 [Example 188] | 560
Cc1cc(-c2nc(-c3cc(C)nc(N(C)C(C)C)n3)no2)cc(N(C)C)n1 [Example 196] | 241
CCN(c1nc(C)cc(-c2noc(-c3cc(C)nc(N(C)C)c3)n2)n1)C(C)C [Example 200] | 94
COc1nc(C)cc(-c2noc(-c3cc(C)nc(N(C)C)c3)n2)n1 [Example 201] | 1140
Cc1cc(-c2nc(-c3cc(C)nc(OCC(C)C)n3)no2)cc(N(C)C)n1 [Example 205] | 3040
CCCNc1nc(C)cc(-c2noc(-c3cnc(CC(C)C)c(C)c3)n2)n1 [Example 206] | 5780
CCCN(CC)c1nc(C)cc(-c2noc(-c3cnc(CC(C)C)c(C)c3)n2)n1 [Example 211] | 795
Cc1cc(-c2noc(-c3cnc(OC(C)C)c(C)c3)n2)nc(NC(C)C)n1 [Example 214] | 720
CCc1cc(-c2nc(-c3cc(C)nc(NC)n3)no2)cnc1N(C)C(C)C [Example 220] | 231
CCc1cc(-c2nc(-c3cc(C)nc(NC(C)C)n3)no2)cnc1N(C)C(C)C [Example 223] | 4160

Now from value to compound:

EC50 [nM] | SMILES
3220 | CCc1cc(-c2nc(-c3cc(C)nc(N(C)C(C)C)n3)no2)cnc1N(C)C(C)C [Example 228]
190 | CCc1cc(-c2nc(-c3cc(C)nc(OC)n3)no2)cnc1N(C)C(C)C [Example 233]
402 | CNc1nc(C)cc(-c2noc(-c3cc(C)cc(CC(C)C)n3)n2)n1 [Example 238]
318 | Cc1cc(CC(C)C)nc(-c2nc(-c3cc(C)nc(N(C)C)n3)no2)c1 [Example 243]
201 | COc1nc(C)cc(-c2noc(-c3cc(C)cc(CC(C)C)n3)n2)n1 [Example 251]
331 | CCCNc1nc(C)cc(-c2nnc(-c3cc(C)nc(C)c3)s2)n1 [Example 261]
